{"source": "the supplement of paper PMC7806825", "test_system": "McpC ligand-binding domain (Salmonella Typhimurium SL1344)", "test": "protein melting temperature (Tm) in presence of compound (degrees C); higher = more thermal stabilisation (possible ligand binding)", "conditions": "compound stock concentration: 10-20 mM, 2 uL in 10 uL reaction"}
{"smiles": "CC(=O)N[C@H]1[C@H]([C@H](O)[C@H](O)CO)OC(O)(C(=O)O)C[C@@H]1O", "note": "(stereo partly drawn) [N-Acetyl-Neuraminic acid]", "values": [{"measurement": "protein melting temperature", "setting": "Biolog plate: PM02A", "result": 44.4}]}
{"smiles": "O=C(O)CC(O)C(=O)O", "note": "(racemic) [DL-Malic acid]", "values": [{"measurement": "protein melting temperature", "setting": "Biolog plate: PM01", "result": 44.5}]}
{"smiles": "O=C(O)COP(=O)(O)O", "note": "[Phospho-Glycolic acid]", "values": [{"measurement": "protein melting temperature", "setting": "Biolog plate: PM04A", "result": 43.5}]}
{"smiles": "COC(=O)CCC(=O)O", "note": "[Mono-Methylsuccinate]", "values": [{"measurement": "protein melting temperature", "setting": "Biolog plate: PM01", "result": 45}]}
{"smiles": "O=C(CO)[C@@H](O)[C@H](O)[C@H](O)CO", "note": "[D-Fructose]", "values": [{"measurement": "protein melting temperature", "setting": "Biolog plate: PM01", "result": 44.3}]}
{"smiles": "N[C@@H](Cc1ccccc1)C(=O)O", "note": "[L-Phenylalanine]", "values": [{"measurement": "protein melting temperature", "setting": "Biolog plate: PM02A", "result": 44.5}, {"measurement": "protein melting temperature", "setting": "Biolog plate: PM03B", "result": 44.8}, {"measurement": "protein melting temperature", "setting": "Biolog plate: PM05", "result": 43.8}]}
{"smiles": "OC[C@H]1O[C@H](OC[C@H]2O[C@H](O[C@]3(CO)O[C@H](CO)[C@@H](O)[C@@H]3O)[C@H](O)[C@@H](O)[C@@H]2O)[C@H](O)[C@@H](O)[C@H]1O", "note": "[D-Raffinose]", "values": [{"measurement": "protein melting temperature", "setting": "Biolog plate: PM02A", "result": 44.4}]}
{"smiles": "OC[C@H]1O[C@@](CO)(O[C@H]2O[C@H](CO)[C@@H](O)[C@H](O)[C@H]2O)[C@@H](O[C@H]2O[C@H](CO)[C@@H](O)[C@H](O)[C@H]2O)[C@@H]1O", "note": "[D-Melezitose]", "values": [{"measurement": "protein melting temperature", "setting": "Biolog plate: PM02A", "result": 44.5}]}
{"smiles": "CSCC[C@@H](N)C(=O)O", "note": "[D-Methionine]", "values": [{"measurement": "protein melting temperature", "setting": "Biolog plate: PM04A", "result": 43.7}]}
{"smiles": "Nc1nc2[nH]cnc2c(=O)[nH]1", "note": "[Guanine]", "values": [{"measurement": "protein melting temperature", "setting": "Biolog plate: PM03B", "result": 44.7}, {"measurement": "protein melting temperature", "setting": "Biolog plate: PM05", "result": 44.4}]}
{"smiles": "C[N+](C)(C)CCO", "note": "[Choline]", "values": [{"measurement": "protein melting temperature", "setting": "Biolog plate: PM05", "result": 43.1}]}
{"smiles": "C[N+](C)(C)CCOP(=O)(O)O", "note": "[Phosphoryl Choline]", "values": [{"measurement": "protein melting temperature", "setting": "Biolog plate: PM04A", "result": 43.7}]}
{"smiles": "O=C(O)CCCCCCCCC(=O)O", "note": "[Sebacic acid]", "values": [{"measurement": "protein melting temperature", "setting": "Biolog plate: PM02A", "result": 44.8}]}
{"smiles": "NCC(=O)N[C@@H](CC(N)=O)C(=O)O", "note": "[Gly-Asn]", "values": [{"measurement": "protein melting temperature", "setting": "Biolog plate: PM03B", "result": 44.5}]}
{"smiles": "CO[C@H]1O[C@H](CO)[C@@H](O)[C@H](O)[C@H]1O", "note": "[a-Methyl-D-Glucoside]", "values": [{"measurement": "protein melting temperature", "setting": "Biolog plate: PM02A", "result": 44.2}]}
{"smiles": "CC(C)C[C@H](N)C(=O)O", "note": "[L-Leucine]", "values": [{"measurement": "protein melting temperature", "setting": "Biolog plate: PM02A", "result": 44.3}, {"measurement": "protein melting temperature", "setting": "Biolog plate: PM03B", "result": 44.8}, {"measurement": "protein melting temperature", "setting": "Biolog plate: PM05", "result": 44.6}]}
{"smiles": "OC[C@@H](O)C(O)[C@H](O)CO", "note": "[D-Arabitol]", "values": [{"measurement": "protein melting temperature", "setting": "Biolog plate: PM02A", "result": 44.4}]}
{"smiles": "NCCCCCC(=O)O", "note": "[e-Amino-N-Caproic acid]", "values": [{"measurement": "protein melting temperature", "setting": "Biolog plate: PM03B", "result": 44.4}]}
{"smiles": "COC(=O)[C@@H](C)O", "note": "[D-Lactic acid Methyl Ester]", "values": [{"measurement": "protein melting temperature", "setting": "Biolog plate: PM02A", "result": 44.4}]}
{"smiles": "CC(=O)N(O)CCCCCNC(=O)CCC(=O)N(O)CCCCCNC(=O)CCC(=O)N(O)CCCCCN", "note": "[Deferoxamine]", "values": [{"measurement": "protein melting temperature", "setting": "Biolog plate: PM05", "result": 44.4}]}
{"smiles": "O=C(CO)[C@@H](O)[C@H](O)[C@@H](O)C(=O)O", "note": "[5-Keto-D-Gluconic acid]", "values": [{"measurement": "protein melting temperature", "setting": "Biolog plate: PM02A", "result": 43.9}]}
{"smiles": "CC(O)C(N)=O", "note": "(racemic) [DL-Lactamide]", "values": [{"measurement": "protein melting temperature", "setting": "Biolog plate: PM03B", "result": 45.6}]}
{"smiles": "NCCO", "note": "[2-Aminoethanol]", "values": [{"measurement": "protein melting temperature", "setting": "Biolog plate: PM01", "result": 44.3}]}
{"smiles": "C[C@@H](OP(=O)(O)O)[C@H](N)C(=O)O", "note": "[O-Phospho-L-Threonine]", "values": [{"measurement": "protein melting temperature", "setting": "Biolog plate: PM04A", "result": 44}]}
{"smiles": "O=C(CO)[C@@H](O[C@H]1O[C@H](CO)[C@@H](O)[C@H](O)[C@H]1O)[C@H](O)[C@H](O)CO", "note": "[Turanose]", "values": [{"measurement": "protein melting temperature", "setting": "Biolog plate: PM02A", "result": 44.1}]}
{"smiles": "N[C@@H](Cc1ccc(O)cc1)C(=O)O", "note": "[L-Tyrosine]", "values": [{"measurement": "protein melting temperature", "setting": "Biolog plate: PM03B", "result": 44.8}, {"measurement": "protein melting temperature", "setting": "Biolog plate: PM05", "result": 43.9}]}
{"smiles": "O=C(O)CC(Br)C(=O)O", "note": "(stereo not drawn) [Bromosuccinic acid]", "values": [{"measurement": "protein melting temperature", "setting": "Biolog plate: PM01", "result": 44.8}]}
{"smiles": "N[C@H](Cc1ccc(OP(=O)(O)O)cc1)C(=O)O", "note": "[O-Phospho-D-Tyrosine]", "values": [{"measurement": "protein melting temperature", "setting": "Biolog plate: PM04A", "result": 43.7}]}
{"smiles": "OC[C@H]1OC(O)[C@H](O)[C@@H](O)[C@H]1O", "note": "(stereo partly drawn) [D-Galactose]", "values": [{"measurement": "protein melting temperature", "setting": "Biolog plate: PM01", "result": 44.8}]}
{"smiles": "Cc1c[nH]c(=O)[nH]c1=O", "note": "[Thymine]", "values": [{"measurement": "protein melting temperature", "setting": "Biolog plate: PM03B", "result": 45.1}, {"measurement": "protein melting temperature", "setting": "Biolog plate: PM05", "result": 43}]}
{"smiles": "NC(=O)CCC(=O)O", "note": "[Succinamic acid]", "values": [{"measurement": "protein melting temperature", "setting": "Biolog plate: PM02A", "result": 43.6}]}
